Test results taken from US8518945B2, “Pyrrolopyrazine kinase inhibitors” (Hoffmann-La Roche Inc., priority 2010, dated 2013).

Target: T1, h-jak3(810-1124) (JAK3: Recombinant human kinase domain) (Homo sapiens, UniProt P52333)
T1 construct: jak3(810- 1124)-sf9-c; made in house; host or cells: Sf9
Assay: Determination of IC50 of Janus Kinase (JAK) inhibition: JAK3 radioactive end-point 33P-ATP kinase assay
Type: biochemical
Details: no additive; ATP 1.5 uM, peptide 50 uM, 20 minutes, room temperature; read-out: Ic50 h-jak3(810-1124)-sf9-c: no additive

T1 sequence (P52333 810-1124): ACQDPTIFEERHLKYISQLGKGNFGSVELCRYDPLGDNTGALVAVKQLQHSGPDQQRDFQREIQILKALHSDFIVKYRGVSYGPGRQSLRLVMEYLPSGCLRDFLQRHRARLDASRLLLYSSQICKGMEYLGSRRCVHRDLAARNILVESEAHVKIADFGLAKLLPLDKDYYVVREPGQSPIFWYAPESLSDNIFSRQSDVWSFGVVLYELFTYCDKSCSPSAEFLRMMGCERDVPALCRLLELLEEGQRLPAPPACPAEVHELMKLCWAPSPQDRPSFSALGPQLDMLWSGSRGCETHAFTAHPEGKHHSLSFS

Row | IC50 [nM] | Compound
1 | ≤ 0.32 | Cn1cc(-c2cnc3[nH]cc(C(=O)N[C@@H](C(=O)N4CC[C@@H](C#N)C4)C4CC4)c3n2)cn1 [Example I-82, 2-(1-Methyl-1H-pyrazol-4-yl)-5H-pyrrolo[2,3-b]pyrazine-7-carboxylic acid [(R)-2-((R)-3-cyano-pyrrolidin-1-yl)-1-cyclopropyl-2-oxo-ethyl]-amide]
2 | 0.75 | O=C(N[C@@H](C(=O)N1CC2(COC2)C1)C1CC1)c1c[nH]c2ncc(C3CC3)nc12 [Example I-84, 2-Cyclopropyl-5H-pyrrolo[2,3-b]pyrazine-7-carboxylic acid [(R)-1-cyclopropyl-2-(2-oxa-6-aza-spiro[3.3]hept-6-yl)-2-oxo-ethyl]-amide]
3 | 0.85 | Cn1cc(-c2cnc3[nH]cc(C(=O)N[C@@H](C(=O)N4CC5(COC5)C4)C4CC4)c3n2)cn1 [Example I-85, 2-(1-Methyl-1H-pyrazol-4-yl)-5H-pyrrolo[2,3-b]pyrazine-7-carboxylic acid [(R)-1-cyclopropyl-2-(2-oxa-6-aza-spiro[3.3]hept-6-yl)-2-oxo-ethyl]-amide]
4 | 4.02 | O=C(N[C@@H](C(=O)N1C[C@@H]2[C@@H](CO)[C@@H]2C1)C1CC1)c1c[nH]c2ncc(C3CC3)nc12 [Example I-86, 2-Cyclopropyl-5H-pyrrolo[2,3-b]pyrazine-7-carboxylic acid [(R)-1-cyclopropyl-2-((1S,5R,6R)-6-hydroxymethyl-3-aza-bicyclo[3.1.0]hex-3-yl)-2-oxo-ethyl]-amide]
5 | 4.49 | Cn1cc(-c2cnc3[nH]cc(C(=O)N[C@@H](C(=O)N4C[C@@H]5[C@@H](CO)[C@@H]5C4)C4CC4)c3n2)cn1 [Example I-87, 2-(1-Methyl-1H-pyrazol-4-yl)-5H-pyrrolo[2,3-b]pyrazine-7-carboxylic acid [(R)-1-cyclopropyl-2-((1S,5R,6R)-6-hydroxymethyl-3-aza-bicyclo[3.1.0]hex-3-yl)-2-oxo-ethyl]-amide]
6 | 1.23 | O=C(N[C@@H](C(=O)N1CCS(=O)(=O)CC1)C1CC1)c1c[nH]c2ncc(C3CC3)nc12 [Example I-88, 2-Cyclopropyl-5H-pyrrolo[2,3-b]pyrazine-7-carboxylic acid [(R)-1-cyclopropyl-2-(1,1-dioxo-1λ^6-thiomorpholin-4-yl)-2-oxo-ethyl]-amide]
7 | 4.23 | Cn1cc(-c2cnc3[nH]cc(C(=O)N[C@@H](C(=O)N4CCS(=O)(=O)CC4)C4CC4)c3n2)cn1 [Example I-89, 2-(1-Methyl-1H-pyrazol-4-yl)-5H-pyrrolo[2,3-b]pyrazine-7-carboxylic acid [(R)-1-cyclopropyl-2-(1,1-dioxo-1λ^6-thiomorpholin-4-yl)-2-oxo-ethyl]-amide]
8 | 9.73 | CC(C)(C)[C@@H](NC(=O)c1c[nH]c2ncc(OC3CCCCC3)nc12)C(=O)N1CCC(C#N)CC1 [Example I-90, 2-Cyclohexyloxy-5H-pyrrolo[2,3-b]pyrazine-7-carboxylic acid [(R)-1-(4-cyano-piperidine-1-carbonyl)-2,2-dimethyl-propyl]-amide]
9 | 17 | CC(C)(C)[C@@H](NC(=O)c1c[nH]c2ncc(OCCC(F)(F)F)nc12)C(=O)N1CCC(C#N)CC1 [Example I-91, 2-(3,3,3-Trifluoro-propoxy)-5H-pyrrolo[2,3-b]pyrazine-7-carboxylic acid [(R)-1-(4-cyano-piperidine-1-carbonyl)-2,2-dimethyl-propyl]-amide]
10 | 10.9 | CC(C)(C)[C@@H](NC(=O)c1c[nH]c2ncc(OC3CCCC3)nc12)C(=O)N1CCC(C#N)CC1 [Example I-92, 2-Cyclopentyloxy-5H-pyrrolo[2,3-b]pyrazine-7-carboxylic acid [(R)-1-(4-cyano-piperidine-1-carbonyl)-2,2-dimethyl-propyl]-amide]
11 | 16.4 | CC(C)(C)[C@@H](NC(=O)c1c[nH]c2ncc(OCC(F)(F)F)nc12)C(=O)N1CCC(C#N)CC1 [Example I-93, 2-(2,2,2-Trifluoro-ethoxy)-5H-pyrrolo[2,3-b]pyrazine-7-carboxylic acid [(R)-1-(4-cyano-piperidine-1-carbonyl)-2,2-dimethyl-propyl]-amide]
12 | 3.66 | CC(C)Oc1cnc2[nH]cc(C(=O)N[C@@H](C(=O)N3CCC(C#N)CC3)C(C)(C)C)c2n1 [Example I-94, 2-Isopropoxy-5H-pyrrolo[2,3-b]pyrazine-7-carboxylic acid [(R)-1-(4-cyano-piperidine-1-carbonyl)-2,2-dimethyl-propyl]-amide]
13 | 2.73 | N#CC1CN(C(=O)[C@H](NC(=O)c2c[nH]c3ncc(N4Cc5c(Cl)cccc5C4=O)nc23)C2CC2)C1 [Example I-95, 2-(4-Chloro-1-oxo-1,3-dihydro-isoindol-2-yl)-5H-pyrrolo[2,3-b]pyrazine-7-carboxylic acid [(R)-2-(3-cyano-azetidin-1-yl)-1-cyclopropyl-2-oxo-ethyl]-amide]
14 | 0.69 | N#CC1CN(C(=O)[C@H](NC(=O)c2c[nH]c3ncc(-c4cc5nccc(Cl)c5s4)nc23)C2CC2)C1 [Example I-96, 2-(7-Chloro-thieno[3,2-b]pyridin-2-yl)-5H-pyrrolo[2,3-b]pyrazine-7-carboxylic acid [(R)-2-(3-cyano-azetidin-1-yl)-1-cyclopropyl-2-oxo-ethyl]-amide]
15 | 3.91 | N#CC1CN(C(=O)[C@H](NC(=O)c2c[nH]c3ncc(-c4cc5nccc(N6CCCC6)c5s4)nc23)C2CC2)C1 [Example I-97, 2-(7-Pyrrolidin-1-yl-thieno[3,2-b]pyridin-2-yl)-5H-pyrrolo[2,3-b]pyrazine-7-carboxylic acid [(R)-2-(3-cyano-azetidin-1-yl)-1-cyclopropyl-2-oxo-ethyl]-amide]
16 | 2.16 | N#CC1CN(C(=O)[C@H](NC(=O)c2c[nH]c3ncc(-c4cc5nccc(OCC(F)(F)F)c5s4)nc23)C2CC2)C1 [Example I-98, 2-[7-(2,2,2-Trifluoro-ethoxy)-thieno[3,2-b]pyridin-2-yl]-5H-pyrrolo[2,3-b]pyrazine-7-carboxylic acid [(R)-2-(3-cyano-azetidin-1-yl)-1-cyclopropyl-2-oxo-ethyl]-amide]
17 | 0.78 | COc1ccnc2cc(-c3cnc4[nH]cc(C(=O)N[C@@H](C(=O)N5CC(C#N)C5)C5CC5)c4n3)sc12 [Example I-99, 2-(7-Methoxy-thieno[3,2-b]pyridin-2-yl)-5H-pyrrolo[2,3-b]pyrazine-7-carboxylic acid [(R)-2-(3-cyano-azetidin-1-yl)-1-cyclopropyl-2-oxo-ethyl]-amide]
18 | 16 | C[C@@H](NC(=O)c1c[nH]c2ncc(-c3cc4nccc(Cl)c4s3)nc12)C(=O)N1CC(C#N)C1 [Example I-100, 2-(7-Chloro-thieno[3,2-b]pyridin-2-yl)-5H-pyrrolo[2,3-b]pyrazine-7-carboxylic acid [(R)-2-(3-cyano-azetidin-1-yl)-1-methyl-2-oxo-ethyl]-amide]
19 | 37 | C[C@@H](NC(=O)c1c[nH]c2ncc(-c3cc4nccc(N5CCCC5)c4s3)nc12)C(=O)N1CC(C#N)C1 [Example I-101, 2-(7-Pyrrolidin-1-yl-thieno[3,2-b]pyridin-2-yl)-5H-pyrrolo[2,3-b]pyrazine-7-carboxylic acid [(R)-2-(3-cyano-azetidin-1-yl)-1-methyl-2-oxo-ethyl]-amide]
20 | 43.1 | C[C@@H](NC(=O)c1c[nH]c2ncc(-c3cc4nccc(OCC(F)(F)F)c4s3)nc12)C(=O)N1CC(C#N)C1 [Example I-102, 2-[7-(2,2,2-Trifluoro-ethoxy)-thieno[3,2-b]pyridin-2-yl]-5H-pyrrolo[2,3-b]pyrazine-7-carboxylic acid [(R)-2-(3-cyano-azetidin-1-yl)-1-methyl-2-oxo-ethyl]-amide]
21 | 8.34 | COc1ccnc2cc(-c3cnc4[nH]cc(C(=O)N[C@H](C)C(=O)N5CC(C#N)C5)c4n3)sc12 [Example I-103, 2-(7-Methoxy-thieno[3,2-b]pyridin-2-yl)-5H-pyrrolo[2,3-b]pyrazine-7-carboxylic acid [(R)-2-(3-cyano-azetidin-1-yl)-1-methyl-2-oxo-ethyl]-amide]
22 | 2260 | CCn1cc(-c2cnc3[nH]cc(C(=O)N[C@@H](CC(F)(F)F)C(=O)N4CCC(C#N)CC4)c3n2)cn1 [Example I-105, 2-(1-Ethyl-1H-pyrazol-4-yl)-5H-pyrrolo[2,3-b]pyrazine-7-carboxylic acid [(S)-1-(4-cyano-piperidine-1-carbonyl)-3,3,3-trifluoro-propyl]-amide]
23 | 2.61 | CCn1cc(-c2cnc3[nH]cc(C(=O)N[C@H](CC(F)(F)F)C(=O)N4CCC(C#N)CC4)c3n2)cn1 [Example I-106, 2-(1-Ethyl-1H-pyrazol-4-yl)-5H-pyrrolo[2,3-b]pyrazine-7-carboxylic acid [(R)-1-(4-cyano-piperidine-1-carbonyl)-3,3,3-trifluoro-propyl]-amide]
24 | 6.57 | N#CC1CCN(C(=O)[C@H](NC(=O)c2c[nH]c3ncc(-c4cn(C5CCCC5)nn4)nc23)C2CC2)CC1 [Example I-107, 2-(1-Cyclopentyl-1H-[1,2,3]triazol-4-yl)-5H-pyrrolo[2,3-b]pyrazine-7-carboxylic acid [(R)-2-(4-cyano-piperidin-1-yl)-1-cyclopropyl-2-oxo-ethyl]-amide]
25 | 6.05 | N#CC1CCN(C(=O)[C@H](NC(=O)c2c[nH]c3ncc(-c4cn(-c5ccccc5)nn4)nc23)C2CC2)CC1 [Example I-108, 2-(1-Phenyl-1H-[1,2,3]triazol-4-yl)-5H-pyrrolo[2,3-b]pyrazine-7-carboxylic acid [(R)-2-(4-cyano-piperidin-1-yl)-1-cyclopropyl-2-oxo-ethyl]-amide]
26 | 0.61 | C[C@@H](NC(=O)c1c[nH]c2ncc(-c3cccc(N4CCCC4)c3)nc12)C(=O)N1CC(C#N)C1 [Example I-109, 2-(3-Pyrrolidin-1-yl-phenyl)-5H-pyrrolo[2,3-b]pyrazine-7-carboxylic acid [(R)-2-(3-cyano-azetidin-1-yl)-1-methyl-2-oxo-ethyl]-amide]
27 | 1.22 | CNC(=O)c1cccc(-c2cnc3[nH]cc(C(=O)N[C@H](C)C(=O)N4CC(C#N)C4)c3n2)c1 [Example I-110, 2-(3-Methylcarbamoyl-phenyl)-5H-pyrrolo[2,3-b]pyrazine-7-carboxylic acid [(R)-2-(3-cyano-azetidin-1-yl)-1-methyl-2-oxo-ethyl]-amide]
